Data as given in ChEMBL document CHEMBL2434952, “Morphological changes of some pathogenic microbial strains induced by novel thiadiazole derivatives” (2013).
Converted amounts (≈) assume the structure as drawn. The source made the active and inactive calls. The calls are words filed in the database; no cut-off is given here.

How the values were obtained:
[1] = test system: Candida albicans; test: Antifungal activity against Candida albicans assessed as growth inhibition measured after 24 to 48 hrs by agar disk diffusion method; type: functional, organism-based
[2] = test system: Staphylococcus aureus; test: Antibacterial activity against Staphylococcus aureus assessed as growth inhibition measured after 24 to 48 hrs by agar disk diffusion method; type: functional
[3] = test system: Bacillus cereus; test: Antibacterial activity against Bacillus cereus assessed as growth inhibition measured after 24 to 48 hrs by agar disk diffusion method in absence of 24.4 Gy gamma-irradiation; type: functional
[4] = test system: Staphylococcus epidermidis; test: Antibacterial activity against Staphylococcus epidermidis assessed as growth inhibition measured after 24 to 48 hrs by agar disk diffusion method in presence of 24.4 Gy gamma-irradiation; type: functional
[5] = test system: Staphylococcus epidermidis; test: Antibacterial activity against Staphylococcus epidermidis assessed as growth inhibition measured after 24 to 48 hrs by agar disk diffusion method in absence of 24.4 Gy gamma-irradiation; type: functional
[6] = test system: Bacillus cereus; test: Antibacterial activity against Bacillus cereus assessed as growth inhibition measured after 24 to 48 hrs by agar disk diffusion method; type: functional
[7] = test system: Pseudomonas aeruginosa; test: Antibacterial activity against Pseudomonas aeruginosa assessed as growth inhibition measured after 24 to 48 hrs by agar disk diffusion method; type: functional, organism-based
[8] = test system: Klebsiella pneumoniae; test: Antibacterial activity against Klebsiella pneumoniae assessed as growth inhibition measured after 24 to 48 hrs by agar disk diffusion method; type: functional, organism-based
[9] = test system: Staphylococcus epidermidis; test: Antibacterial activity against Staphylococcus epidermidis assessed as growth inhibition measured after 24 to 48 hrs by agar disk diffusion method; type: functional
[10] = test system: Staphylococcus aureus; test: Antibacterial activity against Staphylococcus aureus assessed as growth inhibition measured after 24 to 48 hrs by agar disk diffusion method in presence of 24.4 Gy gamma-irradiation; type: functional
[11] = test system: Staphylococcus aureus; test: Antibacterial activity against Staphylococcus aureus assessed as growth inhibition measured after 24 to 48 hrs by agar disk diffusion method in absence of 24.4 Gy gamma-irradiation; type: functional
[12] = test system: Bacillus cereus; test: Antibacterial activity against Bacillus cereus assessed as growth inhibition measured after 24 to 48 hrs by agar disk diffusion method in presence of 24.4 Gy gamma-irradiation; type: functional
[13] = test system: Candida albicans; test: Antifungal activity against Candida albicans assessed as growth inhibition at 30 ug/disk measured after 24 to 48 hrs by agar disk diffusion method; type: functional, organism-based
[14] = test system: Staphylococcus aureus; test: Antibacterial activity against Staphylococcus aureus assessed as appearance of projected cellular material and membrane blebbing at MIC by scanning electron microscopic analysis; type: functional, organism-based
[15] = test system: Staphylococcus aureus; test: Antibacterial activity against Staphylococcus aureus assessed as growth inhibition measured for 24 hrs by agar streak dilution method in presence of 24.4 Gy gamma-irradiation; type: functional; details: light or radiation study
[16] = test system: Staphylococcus aureus; test: Antibacterial activity against Staphylococcus aureus assessed as growth inhibition measured for 24 hrs by agar streak dilution method in absence of 24.4 Gy gamma-irradiation; type: functional; details: light or radiation study
[17] = test system: Bacillus cereus; test: Antibacterial activity against Bacillus cereus assessed as shortening of cell surface at MIC by scanning electron microscopic analysis; type: functional, organism-based
[18] = test system: Bacillus cereus; test: Antibacterial activity against Bacillus cereus assessed as elongation of cell surface at MIC by scanning electron microscopic analysis; type: functional, organism-based
[19] = test system: Bacillus cereus; test: Antibacterial activity against Bacillus cereus assessed as aggregation of cellular material at poles at MIC by scanning electron microscopic analysis; type: functional, organism-based
[20] = test system: Bacillus cereus; test: Antibacterial activity against Bacillus cereus assessed as septum disappearance at MIC by scanning electron microscopic analysis; type: functional, organism-based
[21] = test system: Staphylococcus aureus; test: Antibacterial activity against Staphylococcus aureus assessed as deformity of cell surface at MIC by scanning electron microscopic analysis in presence of 24.4 Gy gamma-irradiation; type: functional, organism-based
[22] = test system: Bacillus cereus; test: Antibacterial activity against Bacillus cereus assessed as growth inhibition measured for 24 hrs by agar streak dilution method in absence of 24.4 Gy gamma-irradiation; type: functional; details: light or radiation study
[23] = test system: Staphylococcus aureus; test: Antibacterial activity against Staphylococcus aureus assessed as septum disappearance at MIC by scanning electron microscopic analysis; type: functional, organism-based
[24] = test system: Staphylococcus aureus; test: Antibacterial activity against Staphylococcus aureus assessed as elongation of cell surface at MIC by scanning electron microscopic analysis in presence of 24.4 Gy gamma-irradiation; type: functional, organism-based
[25] = test system: Staphylococcus epidermidis; test: Antibacterial activity against Staphylococcus epidermidis assessed as growth inhibition at 30 ug/disk measured after 24 to 48 hrs by agar disk diffusion method in absence of 24.4 Gy gamma-irradiation; type: functional; details: light or radiation study, read-out: IZ
[26] = test system: Bacillus cereus; test: Antibacterial activity against Bacillus cereus assessed as growth inhibition at 30 ug/disk measured after 24 to 48 hrs by agar disk diffusion method; type: functional; details: read-out: IZ
[27] = test system: Staphylococcus aureus; test: Antibacterial activity against Staphylococcus aureus assessed as growth inhibition at 30 ug/disk measured after 24 to 48 hrs by agar disk diffusion method; type: functional; details: read-out: IZ
[28] = test system: Staphylococcus epidermidis; test: Antibacterial activity against Staphylococcus epidermidis assessed as growth inhibition at 30 ug/disk measured after 24 to 48 hrs by agar disk diffusion method; type: functional; details: read-out: IZ
[29] = test system: Staphylococcus aureus; test: Antibacterial activity against Staphylococcus aureus assessed as growth inhibition at 30 ug/disk measured after 24 to 48 hrs by agar disk diffusion method in absence of 24.4 Gy gamma-irradiation; type: functional; details: light or radiation study, read-out: IZ
[30] = test system: Pseudomonas aeruginosa; test: Antibacterial activity against Pseudomonas aeruginosa assessed as growth inhibition at 30 ug/disk measured after 24 to 48 hrs by agar disk diffusion method; type: functional; details: read-out: IZ
[31] = test system: Klebsiella pneumoniae; test: Antibacterial activity against Klebsiella pneumoniae assessed as growth inhibition at 30 ug/disk measured after 24 to 48 hrs by agar disk diffusion method; type: functional; details: read-out: IZ
[32] = test system: Bacillus cereus; test: Antibacterial activity against Bacillus cereus assessed as growth inhibition at 30 ug/disk measured after 24 to 48 hrs by agar disk diffusion method in absence of 24.4 Gy gamma-irradiation; type: functional; details: light or radiation study, read-out: IZ
[33] = test system: Staphylococcus epidermidis; test: Antibacterial activity against Staphylococcus epidermidis assessed as growth inhibition at 30 ug/disk measured after 24 to 48 hrs by agar disk diffusion method in presence of 24.4 Gy gamma-irradiation; type: functional; details: light or radiation study, read-out: IZ
[34] = test system: Staphylococcus aureus; test: Antibacterial activity against Staphylococcus aureus assessed as growth inhibition at 30 ug/disk measured after 24 to 48 hrs by agar disk diffusion method in presence of 24.4 Gy gamma-irradiation; type: functional; details: light or radiation study, read-out: IZ
[35] = test system: Bacillus cereus; test: Antibacterial activity against Bacillus cereus assessed as growth inhibition at 30 ug/disk measured after 24 to 48 hrs by agar disk diffusion method in presence of 24.4 Gy gamma-irradiation; type: functional; details: light or radiation study, read-out: IZ

Compound	growth inhibition (GI) [1]	inhibition zone (IZ) [2]	inhibition zone (IZ) [3]	inhibition zone (IZ) [4]	inhibition zone (IZ) [5]	inhibition zone (IZ) [6]	growth inhibition (GI) [7]	growth inhibition (GI) [8]	inhibition zone (IZ) [9]	inhibition zone (IZ) [10]	inhibition zone (IZ) [11]	inhibition zone (IZ) [12]	also measured
O=CN(C=O)c1n[nH]c(=S)s1	inactive	20 mm	13 mm	13 mm	13 mm	22 mm	inactive	inactive	20 mm	16 mm	20 mm	20 mm	–
O=C(Nc1ccccc1)Sc1nnc(N(C(=O)Nc2ccccc2)C(=O)Nc2ccccc2)s1	inactive	15 mm	7 mm	12 mm	8 mm	7 mm	inactive	inactive	7 mm	7 mm	7 mm	9 mm	–
CC(=O)N(C(C)=O)c1n[nH]c(=S)s1	inactive	20 mm	11 mm	15 mm	11 mm	20 mm	inactive	inactive	13 mm	17 mm	20 mm	20 mm	–
NYSTATIN	–	–	–	–	–	–	–	–	–	–	–	–	inhibition zone (IZ) [13]: 7 mm
O=C(CNc1n[nH]c(=S)s1)c1ccccc1	inactive	20 mm	15 mm	20 mm	12 mm	18 mm	inactive	inactive	15 mm	20 mm	20 mm	15 mm	–
N#Cc1c(-c2ccccc2)cn(-c2n[nH]c(=S)s2)c1N	inactive	25 mm	25 mm	25 mm	12 mm	20 mm	inactive	inactive	17 mm	19 mm	20 mm	25 mm	Activity [14]: Active; MIC [15]: 250 µg/mL; MIC [16]: 125 µg/mL (≈ 418 µM); Activity [17]: Active; Activity [18]: Active; Activity [19]: Active; Activity [20]: Active; Activity [21]: Active; MIC [22]: 250 µg/mL (≈ 835 µM); Activity [23]: Active; Activity [24]: Active
S=c1[nH]nc(/N=C/c2ccccc2Cl)s1	inactive	20 mm	20 mm	13 mm	13 mm	22 mm	inactive	inactive	12 mm	16 mm	16 mm	16 mm	–
O=C1CSC(Nc2n[nH]c(=S)s2)=N1	inactive	10 mm	11 mm	7 mm	7 mm	9 mm	inactive	inactive	7 mm	15 mm	12 mm	11 mm	–
NCC[C@H](O)C(=O)N[C@@H]1C[C@H](N)[C@@H](O[C@H]2O[C@H](CN)[C@@H](O)[C@H](O)[C@H]2O)[C@H](O)[C@H]1O[C@H]1O[C@H](CO)[C@@H](O)[C@H](N)[C@H]1O [AMIKACIN]	–	–	–	–	–	–	–	–	–	–	–	–	zone of inhibition at 30 µg/disc [25]: 24 mm; zone of inhibition at 30 µg/disc [26]: 20 mm; zone of inhibition at 30 µg/disc [27]: 20 mm; zone of inhibition at 30 µg/disc [28]: 25 mm; zone of inhibition at 30 µg/disc [29]: 20 mm; zone of inhibition at 30 µg/disc [30]: 15 mm; zone of inhibition at 30 µg/disc [31]: 11 mm; zone of inhibition at 30 µg/disc [32]: 20 mm; zone of inhibition at 30 µg/disc [33]: 25 mm; zone of inhibition at 30 µg/disc [34]: 17 mm; zone of inhibition at 30 µg/disc [35]: 20 mm
O=C(Nc1ccccc1)Nc1nnc(S)s1	inactive	10 mm	7 mm	10 mm	7 mm	7 mm	inactive	inactive	9 mm	10 mm	7 mm	9 mm	–
O=C(CCl)Nc1n[nH]c(=S)s1	inactive	inactive	–	–	–	inactive	inactive	inactive	inactive	–	–	–	–
NS(=O)(=O)c1ccc(NC(=S)Nc2n[nH]c(=S)s2)cc1	inactive	9 mm	7 mm	10 mm	6 mm	7 mm	inactive	inactive	inactive	10 mm	10 mm	10 mm	–
